# Values quoted from earlier work as cited in EP2179733A1, “PHARMACEUTICAL COMPOSITION COMBINING AN ANTIMICROBIAL AGENT AND A SELECTIVE ENKEPHALINASE ENZYME INHIBITOR, WHICH CAN BE USED TO CONTROL AND TREAT ACUTE BACTERIAL DIARRHOEA” (World Trade Import-Export, WTIE A.G., priority 2007, dated 2009).
# Columns and labels:
# plasmatic enkephalinase = biological target: T1, plasmatic enkephalinase (Homo sapiens, UniProt P08473)
# T1 construct: from tissue; host or cells: plasma after oral administration of Racecadotril
# T1 sequence (P08473 whole entry): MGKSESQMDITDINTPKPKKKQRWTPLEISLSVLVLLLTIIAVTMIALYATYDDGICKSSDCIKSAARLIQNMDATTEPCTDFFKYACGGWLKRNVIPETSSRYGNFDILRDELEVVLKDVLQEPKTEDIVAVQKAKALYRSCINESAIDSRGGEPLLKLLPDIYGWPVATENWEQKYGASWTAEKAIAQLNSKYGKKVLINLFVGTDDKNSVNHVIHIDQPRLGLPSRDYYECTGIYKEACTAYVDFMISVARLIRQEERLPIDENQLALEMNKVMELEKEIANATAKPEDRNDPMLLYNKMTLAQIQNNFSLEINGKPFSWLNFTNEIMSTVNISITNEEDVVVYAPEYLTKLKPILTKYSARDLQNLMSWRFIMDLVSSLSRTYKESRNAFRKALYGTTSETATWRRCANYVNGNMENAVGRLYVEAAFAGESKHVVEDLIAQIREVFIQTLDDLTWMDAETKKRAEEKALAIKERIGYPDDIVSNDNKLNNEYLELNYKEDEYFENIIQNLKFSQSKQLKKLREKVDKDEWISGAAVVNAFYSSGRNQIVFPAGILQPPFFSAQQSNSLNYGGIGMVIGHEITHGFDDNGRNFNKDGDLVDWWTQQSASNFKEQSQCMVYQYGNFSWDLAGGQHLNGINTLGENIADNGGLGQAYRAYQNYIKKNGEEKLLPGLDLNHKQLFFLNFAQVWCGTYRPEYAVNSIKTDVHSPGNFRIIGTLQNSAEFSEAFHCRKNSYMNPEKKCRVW
structure (smiles),measurement,setting,value
CC(=O)SCC(Cc1ccccc1)C(=O)NCC(=O)OCc1ccccc1 (stereo not drawn) [Racecadotril],duration of inhibiting effect over plasmatic enkephalinase,plasmatic enkephalinase; 1.5 mg/kg oral doses,about 8 hours
same,maximum enzymatic inhibition level,plasmatic enkephalinase; 1.5 mg/kg oral doses,about 90%
same,start of plasmatic enkephalinase inhibiting effect after administration,plasmatic enkephalinase; oral administration,30 min
same,time to maximum activity,plasmatic enkephalinase; oral administration,2 h
same,delay of maximum activity when administered with food,plasmatic enkephalinase; with food,about one and half
same,administered dose distributed in tissues,in vivo,1%
same,mean life,in vivo,about 3 hours
same,time to maximum concentration from administration,oral administration,60 min
same,bioavailability when administered with food,with food,not modified
